Results as given in patent US11123355B2, “Antiviral benzyl-amine phosphodiamide compounds” (Merck Sharp & Dohme Corp., priority 2016, dated 2021).
Read-outs that look alike come from different tables or passages of the source.

System: HIV-1 (H9/IIB strain)
Assay: Multiple Round HIV-1 Infection Assay (Viking Assay) in MT4-GFP cells
Assay type: cell-based
Settings: inhibition of reproductive ratio R0
Procedure: Assessing antiviral potency in a Multiple Round HIV-1 Infection Assay (Viking Assay) The antiviral activity of the tenofovir prodrugs of the Examples herein was assessed in an assay that measures the rate of replication of HIV in cell culture, termed the Viking assay (VIral KINetics in Green cells) and performed as follows. HIV-1 replication was monitored using MT4-gag-GFP clone D3 (hereafter designated MT4-GFP), which are MT-4 cells modified to harbor a GFP reporter gene, the expression of which is dependent on the HIV-1 expressed proteins tat and rev. Productive infection of an MT4-GFP cell with HIV-1 results in GFP expression approximately 24 h post-infection. MT4-GFP cells were maintained at 37° C./5% CO2/90% relative humidity in RPMI 1640 supplemented with 10/o fetal bovine serum, 100 U/ml penicillin/streptomycin, and 400 μg/ml G418 to maintain the reporter gene. For infections, MT4-GFP cells were placed in the same medium lacking G418 and infected overnight with HIV-1 (H9/IIB strain) virus at an approximate multiplicity of infection of 0.01 in the same incubation conditions. Cells were then washed and re-suspended in either RPMI 1640 supplemented with 10% or 50% normal human serum (NHS) at 1.6×10^5 cells/mL (10% NHS or 50% NHS, respectively). Compound plates were prepared by dispensing compounds dissolved in DMSO into wells of 384 well poly-D-lysine-coated plates (0.2 μl/well) using an ECHO acoustic dispenser. Each compound was tested in a 10-point serial 3-fold dilution (typical final concentrations: 8.4 μM-0.42 nM). Controls included no inhibitor (DMSO only) and a combination of three antiviral agents (efavirenz, indinavir, an in-house integrase strand transfer inhibitor at final concentrations of 4 μM each). Cells were added (50 μL/well) to compound plates and the infected cells were maintained at 37° C./5% CO2/90% relative humidity.
Infected cells were quantified at two time points, ˜48 h and ˜72 h post-infection, by counting the number of green cells in each well using an Acumen eX3 scanner. The increase in the number of green cells over ˜24 h period gives the reproductive ratio, R0, which is typically 5-15 and has been shown experimentally to be in logarithmic phase (data not shown). Inhibition of R0 is calculated for each well, and IC50s determined by non-linear 4-parameter curve fitting.

[1] = MT4-GFP cells infected with HIV-1, 10% normal human serum, read-out: Viking, IC50 (10% NHS)
[2] = MT4-GFP cells infected with HIV-1, 50% normal human serum, read-out: Viking, IC50 (50% NHS)

SMILES | IC50 [1] [nM] | IC50 [2] [nM]
CCCOC(=O)C(C)(C)NP(=O)(CO[C@H](C)Cn1cnc2c(N)ncnc21)N[C@@H](C)c1ccc(Cl)cc1 (stereo partly drawn) [Example 13B, propyl 2-(((R)-((((R)-1-(6-amino-9H-purin-9-yl)propan-2-yl)oxy)methyl)(((S)-1-(4-chlorophenyl)ethyl)amino)phosphoryl)ami-no)-2-methylpropanoate and propyl 2-(((S)-((((R)-1-(6-amino-9H-purin-9-yl)propan-2-yl)oxy)methyl)(((S)-1-(4-chlorophenyl)ethyl)amino)phosphoryl)ami-no)-2-methylpropanoate] | 73 | 310
CCCOC(=O)C(C)(C)N[P@@](=O)(CO[C@H](C)Cn1cnc2c(N)ncnc21)N[C@@H](C)c1ccc(OC)cc1 [Example 14A, propyl 2-(((R)-((((R)-1-(6-amino-9H-purin-9-yl)propan-2-yl)oxy)methyl)(((S)-1-(4-methoxyphenyl)ethyl)amino)phosphoryl)a-mino)-2-methylpropanoate and propyl 2-(((S)-((((R)-1-(6-amino-9H-purin-9-yl)propan-2-yl)oxy)methyl)(((S)-1-(4-methoxyphenyl)ethyl)amino)phosphoryl)a-mino)-2-methylpropanoate] | 25 | 140
CCCOC(=O)C(C)(C)N[P@@](=O)(CO[C@H](C)Cn1cnc2c(N)ncnc21)N[C@@H](C)c1ccc(OC)cc1 [Example 14B, propyl 2-(((R)-((((R)-1-(6-amino-9H-purin-9-yl)propan-2-yl)oxy)methyl)(((S)-1-(4-methoxyphenyl)ethyl)amino)phosphoryl)a-mino)-2-methylpropanoate and propyl 2-(((S)-((((R)-1-(6-amino-9H-purin-9-yl)propan-2-yl)oxy)methyl)(((S)-1-(4-methoxyphenyl)ethyl)amino)phosphoryl)a-mino)-2-methylpropanoate] | 52 | 280
CCCOC(=O)C(C)(C)N[P@@](=O)(CO[C@H](C)Cn1cnc2c(N)ncnc21)N[C@H](C)c1ccc(OC)cc1 [Example 15A, propyl 2-(((R)-((((R)-1-(6-amino-9H-purin-9-yl)propan-2-yl)oxy)methyl)(((R)-1-(4-methoxyphenyl)ethyl)amino)phosphoryl)a-mino)-2-methylpropanoate and propyl 2-(((S)-((((R)-1-(6-amino-9H-purin-9-yl)propan-2-yl)oxy)methyl)(((R)-1-(4-methoxyphenyl)ethyl)amino)phosphoryl)a-mino)-2-methylpropanoate] | 74 | 410
CCCOC(=O)C(C)(C)N[P@@](=O)(CO[C@H](C)Cn1cnc2c(N)ncnc21)N[C@H](C)c1ccc(OC)cc1 [Example 15B, propyl 2-(((R)-((((R)-1-(6-amino-9H-purin-9-yl)propan-2-yl)oxy)methyl)(((R)-1-(4-methoxyphenyl)ethyl)amino)phosphoryl)a-mino)-2-methylpropanoate and propyl 2-(((S)-((((R)-1-(6-amino-9H-purin-9-yl)propan-2-yl)oxy)methyl)(((R)-1-(4-methoxyphenyl)ethyl)amino)phosphoryl)a-mino)-2-methylpropanoate] | 7.4 | 40
CCCOC(=O)C(C)(C)N[P@@](=O)(CO[C@H](C)Cn1cnc2c(N)ncnc21)N[C@@H](C)c1ccccc1OC [Example 17A, propyl 2-(((R)-((((R)-1-(6-amino-9H-purin-9-yl)propan-2-yl)oxy)methyl)(((S)-1-(2-methoxyphenyl)ethyl)amino)phosphoryl)a-mino)-2-methylpropanoate and propyl 2-(((S)-((((R)-1-(6-amino-9H-purin-9-yl)propan-2-yl)oxy)methyl)(((S)-1-(2-methoxyphenyl)ethyl)amino)phosphoryl)a-mino)-2-methylpropanoate] | 24 | 310
CCCOC(=O)C(C)(C)N[P@@](=O)(CO[C@H](C)Cn1cnc2c(N)ncnc21)N[C@@H](C)c1ccccc1OC [Example 17B, propyl 2-(((R)-((((R)-1-(6-amino-9H-purin-9-yl)propan-2-yl)oxy)methyl)(((S)-1-(2-methoxyphenyl)ethyl)amino)phosphoryl)a-mino)-2-methylpropanoate and propyl 2-(((S)-((((R)-1-(6-amino-9H-purin-9-yl)propan-2-yl)oxy)methyl)(((S)-1-(2-methoxyphenyl)ethyl)amino)phosphoryl)a-mino)-2-methylpropanoate] | 84 | 510
CCCOC(=O)C(C)(C)NP(=O)(CO[C@H](C)Cn1cnc2c(N)ncnc21)N[C@@H](C)c1ccc(OC(F)(F)F)cc1 (stereo partly drawn) [Example 19B, propyl 2-(((R)-((((R)-1-(6-amino-9H-purin-9-yl)propan-2-yl)oxy)methyl)(((S)-1-(4-(trifluoromethoxy)phenyl)ethyl)amino)phos-phoryl)amino)-2-methylpropanoate and propyl 2-(((S)-((((R)-1-(6-amino-9H-purin-9-yl)propan-2-yl)oxy)methyl)(((S)-1-(4-(trifluoromethoxy)phenyl)ethyl)amino)phos-phoryl)amino)-2-methylpropanoate] | 84 | 360
CCCOC(=O)C(C)(C)NP(=O)(CO[C@H](C)Cn1cnc2c(N)ncnc21)N[C@H](C)c1ccccc1OC (stereo partly drawn) [Example 20A, propyl 2-(((R)-((((R)-1-(6-amino-9H-purin-9-yl)propan-2-yl)oxy)methyl)(((R)-1-(2-methoxyphenyl)ethyl)amino)phosphoryl)a-mino)-2-methylpropanoate and propyl 2-(((S)-((((R)-1-(6-amino-9H-purin-9-yl)propan-2-yl)oxy)methyl)(((R)-1-(2-methoxyphenyl)ethyl)amino)phosphoryl)a-mino)-2-methylpropanoate] | 61 | 590
CCCOC(=O)C(C)(C)NP(=O)(CO[C@H](C)Cn1cnc2c(N)ncnc21)N[C@H](C)c1ccccc1OC (stereo partly drawn) [Example 20B, propyl 2-(((R)-((((R)-1-(6-amino-9H-purin-9-yl)propan-2-yl)oxy)methyl)(((R)-1-(2-methoxyphenyl)ethyl)amino)phosphoryl)a-mino)-2-methylpropanoate and propyl 2-(((S)-((((R)-1-(6-amino-9H-purin-9-yl)propan-2-yl)oxy)methyl)(((R)-1-(2-methoxyphenyl)ethyl)amino)phosphoryl)a-mino)-2-methylpropanoate] | 9.5 | 53
CCCOC(=O)C(C)(C)NP(=O)(CO[C@H](C)Cn1cnc2c(N)ncnc21)N[C@H](C)c1ccc(OC(F)(F)F)cc1C (stereo partly drawn) [Example 21A, Propyl 2-(((R)-((((R)-1-(6-amino-9H-purin-9-yl)propan-2-yl)oxy)methyl)(((R)-1-(2-methyl-4-(trifluoromethoxy)phenyl)ethyl)amino)phos-phoryl)amino)-2-methylpropanoate and propyl 2-(((S)-((((R)-1-(6-amino-9H-purin-9-yl)propan-2-yl)oxy)methyl)(((R)-1-(2-methyl-4-(trifluoromethoxy)phenyl)ethyl)amino)phos-phoryl)amino)-2-methylpropanoate] | 150 | 800
CCCOC(=O)C(C)(C)N[P@@](=O)(CO[C@H](C)Cn1cnc2c(N)ncnc21)N[C@H](c1cccc(F)c1)C(F)(F)F [Example 22A, propyl 2-(((R)-((((R)-1-(6-amino-9H-purin-9-yl)propan-2-yl)oxy)methyl)(((R)-2,2,2-trifluoro-1-(3-fluorophenyl)ethyl)amino)phosphoryl)ami-no)-2-methylpropanoate and propyl 2-(((S)-((((R)-1-(6-amino-9H-purin-9-yl)propan-2-yl)oxy)methyl)(((R)-2,2,2-trifluoro-1-(3-fluorophenyl)ethyl)amino)phosphoryl)ami-no)-2-methylpropanoate] | 8.1 | 74
CCCOC(=O)C(C)(C)N[P@@](=O)(CO[C@H](C)Cn1cnc2c(N)ncnc21)N[C@H](c1cccc(F)c1)C(F)(F)F [Example 22B, propyl 2-(((R)-((((R)-1-(6-amino-9H-purin-9-yl)propan-2-yl)oxy)methyl)(((R)-2,2,2-trifluoro-1-(3-fluorophenyl)ethyl)amino)phosphoryl)ami-no)-2-methylpropanoate and propyl 2-(((S)-((((R)-1-(6-amino-9H-purin-9-yl)propan-2-yl)oxy)methyl)(((R)-2,2,2-trifluoro-1-(3-fluorophenyl)ethyl)amino)phosphoryl)ami-no)-2-methylpropanoate] | 42 | 330
